Laboratory results reported in ChEMBL document CHEMBL2331470 (J Med Chem, 2013).
The source made the active and inactive calls. The calls are words filed in the database; no cut-off is given here.

Experiments:
[1] = molecular target: T1, Histone deacetylase 8 (Homo sapiens, UniProt Q9BY41); assay: Inhibition of HDAC8 (unknown origin) assessed as fluorescence intensity measured after 60 mins incubation at room temperature by trypsin-free microfluidic lab-on-a-chip assay
T1 sequence (Q9BY41 whole entry): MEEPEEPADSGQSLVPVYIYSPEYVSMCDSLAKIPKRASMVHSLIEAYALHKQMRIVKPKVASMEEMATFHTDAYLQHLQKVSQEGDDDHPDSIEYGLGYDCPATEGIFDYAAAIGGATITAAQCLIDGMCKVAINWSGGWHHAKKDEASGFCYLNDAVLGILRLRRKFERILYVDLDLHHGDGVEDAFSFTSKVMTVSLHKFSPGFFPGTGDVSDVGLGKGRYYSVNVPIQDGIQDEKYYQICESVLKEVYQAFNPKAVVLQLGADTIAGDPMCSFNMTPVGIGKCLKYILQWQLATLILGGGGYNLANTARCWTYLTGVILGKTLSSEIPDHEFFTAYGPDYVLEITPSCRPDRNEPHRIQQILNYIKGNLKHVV

[2] = molecular target: T2, Protein deacetylase HDAC6 (Homo sapiens, UniProt Q9UBN7); assay: Inhibition of HDAC6 (unknown origin) assessed as fluorescence intensity measured after 60 mins incubation at room temperature by trypsin-free microfluidic lab-on-a-chip assay
T2 sequence (Q9UBN7 whole entry): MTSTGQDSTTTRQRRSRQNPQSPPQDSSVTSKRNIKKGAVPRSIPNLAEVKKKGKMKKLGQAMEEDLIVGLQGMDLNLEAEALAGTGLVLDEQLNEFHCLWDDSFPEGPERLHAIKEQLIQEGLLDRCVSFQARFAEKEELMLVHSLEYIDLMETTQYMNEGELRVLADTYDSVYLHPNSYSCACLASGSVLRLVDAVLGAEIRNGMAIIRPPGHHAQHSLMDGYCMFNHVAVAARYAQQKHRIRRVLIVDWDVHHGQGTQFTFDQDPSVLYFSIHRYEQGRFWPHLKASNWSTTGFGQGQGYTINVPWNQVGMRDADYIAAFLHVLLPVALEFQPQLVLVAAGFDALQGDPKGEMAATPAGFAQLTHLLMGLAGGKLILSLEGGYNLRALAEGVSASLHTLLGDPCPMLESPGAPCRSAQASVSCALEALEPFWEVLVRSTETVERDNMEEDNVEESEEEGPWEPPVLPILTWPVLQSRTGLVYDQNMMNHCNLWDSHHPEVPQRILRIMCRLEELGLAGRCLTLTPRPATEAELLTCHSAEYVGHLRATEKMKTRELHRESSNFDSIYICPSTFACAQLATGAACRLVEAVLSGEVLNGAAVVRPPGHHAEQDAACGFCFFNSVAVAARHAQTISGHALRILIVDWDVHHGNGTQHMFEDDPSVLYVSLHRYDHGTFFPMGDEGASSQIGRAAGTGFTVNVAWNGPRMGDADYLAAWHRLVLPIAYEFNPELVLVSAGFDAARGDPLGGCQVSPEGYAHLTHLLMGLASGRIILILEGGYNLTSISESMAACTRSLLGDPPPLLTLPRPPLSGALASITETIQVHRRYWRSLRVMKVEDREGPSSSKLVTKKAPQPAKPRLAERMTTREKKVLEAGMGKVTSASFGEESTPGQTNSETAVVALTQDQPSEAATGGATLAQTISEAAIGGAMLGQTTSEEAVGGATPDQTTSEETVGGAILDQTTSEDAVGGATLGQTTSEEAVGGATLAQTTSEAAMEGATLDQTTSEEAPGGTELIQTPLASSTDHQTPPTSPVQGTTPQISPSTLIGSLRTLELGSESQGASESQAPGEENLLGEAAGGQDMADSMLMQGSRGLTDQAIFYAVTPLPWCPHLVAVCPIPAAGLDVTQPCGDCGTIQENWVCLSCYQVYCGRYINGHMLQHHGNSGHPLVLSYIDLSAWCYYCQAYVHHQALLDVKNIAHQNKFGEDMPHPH

[3] = molecular target: Histone deacetylase 4 (Homo sapiens, UniProt P56524); assay: Inhibition of HDAC4 (unknown origin) assessed as fluorescence intensity measured after 60 mins incubation at room temperature by trypsin-free microfluidic lab-on-a-chip assay
[4] = molecular target: Histone deacetylase 2 (Homo sapiens, UniProt Q92769); assay: Inhibition of HDAC2 (unknown origin) assessed as fluorescence intensity measured after 60 mins incubation at room temperature by trypsin-free microfluidic lab-on-a-chip assay
[5] = molecular target: Histone deacetylase 9 (Homo sapiens, UniProt Q9UKV0); assay: Inhibition of HDAC9 (unknown origin) assessed as fluorescence intensity measured after 60 mins incubation at room temperature by trypsin-free microfluidic lab-on-a-chip assay
[6] = molecular target: Histone deacetylase 5 (Homo sapiens, UniProt Q9UQL6); assay: Inhibition of HDAC5 (unknown origin) assessed as fluorescence intensity measured after 60 mins incubation at room temperature by trypsin-free microfluidic lab-on-a-chip assay
[7] = molecular target: T3, Histone deacetylase 3 (Homo sapiens, UniProt O15379); assay: Inhibition of HDAC3 (unknown origin) assessed as fluorescence intensity measured after 60 mins incubation at room temperature by trypsin-free microfluidic lab-on-a-chip assay
[8] = molecular target: Histone deacetylase 1 (Homo sapiens, UniProt Q13547); assay: Inhibition of HDAC1 (unknown origin) assessed as fluorescence intensity measured after 60 mins incubation at room temperature by trypsin-free microfluidic lab-on-a-chip assay
[9] = molecular target: T3, Histone deacetylase 3; assay: Inhibition of HDAC3 in human HeLa cells assessed as increase in acetylated H3 at 30 uM measured after 24 hrs by Western blotting analysis; format: cell-based
[10] = molecular target: T4, Protein deacetylase HDAC6 (Homo sapiens) (UniProt Q9UBN7); assay: Inhibition of HDAC6 in human HeLa cells assessed as increase in acetylated alpha-tubulin measured after 24 hrs by Western blotting analysis; format: cell-based
T4 sequence (whole entry): T2 sequence (Q9UBN7 whole entry)

Histone deacetylase 2, sequence (Q92769 whole entry): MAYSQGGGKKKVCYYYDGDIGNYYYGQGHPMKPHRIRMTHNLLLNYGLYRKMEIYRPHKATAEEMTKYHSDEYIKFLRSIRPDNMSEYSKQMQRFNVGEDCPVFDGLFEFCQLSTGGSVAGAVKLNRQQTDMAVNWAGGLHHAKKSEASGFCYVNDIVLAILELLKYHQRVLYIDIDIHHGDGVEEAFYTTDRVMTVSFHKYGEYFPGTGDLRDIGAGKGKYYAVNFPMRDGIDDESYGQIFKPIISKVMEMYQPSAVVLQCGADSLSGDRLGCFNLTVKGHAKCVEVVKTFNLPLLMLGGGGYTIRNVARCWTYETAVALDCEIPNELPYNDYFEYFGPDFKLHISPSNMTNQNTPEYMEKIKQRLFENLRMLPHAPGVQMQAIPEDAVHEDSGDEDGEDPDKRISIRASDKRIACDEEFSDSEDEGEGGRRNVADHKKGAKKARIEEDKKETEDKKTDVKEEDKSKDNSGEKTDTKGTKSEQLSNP
T3 sequence (O15379 whole entry): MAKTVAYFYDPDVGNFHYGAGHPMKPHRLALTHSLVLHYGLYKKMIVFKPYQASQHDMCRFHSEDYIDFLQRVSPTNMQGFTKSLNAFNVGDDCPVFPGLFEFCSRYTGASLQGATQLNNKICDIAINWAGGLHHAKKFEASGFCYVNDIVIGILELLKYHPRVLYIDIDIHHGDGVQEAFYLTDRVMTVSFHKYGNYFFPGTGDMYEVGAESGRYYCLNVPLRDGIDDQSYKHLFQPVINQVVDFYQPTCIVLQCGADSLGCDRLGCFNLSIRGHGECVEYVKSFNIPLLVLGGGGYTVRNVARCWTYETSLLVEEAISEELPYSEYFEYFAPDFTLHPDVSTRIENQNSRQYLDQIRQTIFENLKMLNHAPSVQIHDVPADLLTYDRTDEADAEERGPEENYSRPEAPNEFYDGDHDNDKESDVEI
Histone deacetylase 4, sequence (P56524 whole entry): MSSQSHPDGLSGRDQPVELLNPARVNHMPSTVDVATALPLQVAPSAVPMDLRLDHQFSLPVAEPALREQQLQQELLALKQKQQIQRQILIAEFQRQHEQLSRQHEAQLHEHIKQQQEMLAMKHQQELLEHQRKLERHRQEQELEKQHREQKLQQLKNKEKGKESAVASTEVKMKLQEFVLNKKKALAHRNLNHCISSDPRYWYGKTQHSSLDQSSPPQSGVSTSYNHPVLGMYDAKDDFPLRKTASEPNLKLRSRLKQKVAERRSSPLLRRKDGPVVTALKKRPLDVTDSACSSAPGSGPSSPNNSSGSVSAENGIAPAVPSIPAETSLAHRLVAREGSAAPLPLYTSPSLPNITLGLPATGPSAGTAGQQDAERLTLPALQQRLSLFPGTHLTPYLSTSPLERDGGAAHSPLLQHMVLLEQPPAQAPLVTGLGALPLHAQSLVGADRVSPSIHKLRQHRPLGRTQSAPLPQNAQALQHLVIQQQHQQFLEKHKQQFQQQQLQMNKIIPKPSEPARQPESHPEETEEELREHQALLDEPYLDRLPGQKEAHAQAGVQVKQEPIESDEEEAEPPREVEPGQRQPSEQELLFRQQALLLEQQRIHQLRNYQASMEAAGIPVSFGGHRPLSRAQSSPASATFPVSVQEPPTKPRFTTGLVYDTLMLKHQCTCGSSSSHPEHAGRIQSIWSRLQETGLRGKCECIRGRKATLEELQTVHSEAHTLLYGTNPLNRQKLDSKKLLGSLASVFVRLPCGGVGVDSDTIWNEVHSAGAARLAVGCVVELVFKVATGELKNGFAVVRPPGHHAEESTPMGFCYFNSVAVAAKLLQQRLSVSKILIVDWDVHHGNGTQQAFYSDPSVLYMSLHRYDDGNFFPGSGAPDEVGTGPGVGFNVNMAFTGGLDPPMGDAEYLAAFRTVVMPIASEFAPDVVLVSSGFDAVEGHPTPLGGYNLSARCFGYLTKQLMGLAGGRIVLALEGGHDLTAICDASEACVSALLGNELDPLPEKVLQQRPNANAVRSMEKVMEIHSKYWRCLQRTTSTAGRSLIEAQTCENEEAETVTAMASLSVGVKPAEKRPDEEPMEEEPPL
Histone deacetylase 1, sequence (Q13547 whole entry): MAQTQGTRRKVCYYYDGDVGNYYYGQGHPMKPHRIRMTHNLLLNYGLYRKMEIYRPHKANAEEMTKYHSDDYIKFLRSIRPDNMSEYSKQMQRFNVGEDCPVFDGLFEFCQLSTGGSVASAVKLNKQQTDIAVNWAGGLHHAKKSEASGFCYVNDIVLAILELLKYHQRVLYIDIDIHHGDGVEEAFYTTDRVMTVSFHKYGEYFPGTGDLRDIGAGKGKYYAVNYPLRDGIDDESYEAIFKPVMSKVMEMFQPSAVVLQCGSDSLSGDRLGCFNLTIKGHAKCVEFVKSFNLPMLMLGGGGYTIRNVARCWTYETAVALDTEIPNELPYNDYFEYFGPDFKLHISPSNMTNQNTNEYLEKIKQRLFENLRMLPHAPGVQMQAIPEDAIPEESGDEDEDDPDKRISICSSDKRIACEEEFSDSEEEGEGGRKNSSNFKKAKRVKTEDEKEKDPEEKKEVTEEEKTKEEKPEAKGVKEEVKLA
Histone deacetylase 9, sequence (Q9UKV0 whole entry): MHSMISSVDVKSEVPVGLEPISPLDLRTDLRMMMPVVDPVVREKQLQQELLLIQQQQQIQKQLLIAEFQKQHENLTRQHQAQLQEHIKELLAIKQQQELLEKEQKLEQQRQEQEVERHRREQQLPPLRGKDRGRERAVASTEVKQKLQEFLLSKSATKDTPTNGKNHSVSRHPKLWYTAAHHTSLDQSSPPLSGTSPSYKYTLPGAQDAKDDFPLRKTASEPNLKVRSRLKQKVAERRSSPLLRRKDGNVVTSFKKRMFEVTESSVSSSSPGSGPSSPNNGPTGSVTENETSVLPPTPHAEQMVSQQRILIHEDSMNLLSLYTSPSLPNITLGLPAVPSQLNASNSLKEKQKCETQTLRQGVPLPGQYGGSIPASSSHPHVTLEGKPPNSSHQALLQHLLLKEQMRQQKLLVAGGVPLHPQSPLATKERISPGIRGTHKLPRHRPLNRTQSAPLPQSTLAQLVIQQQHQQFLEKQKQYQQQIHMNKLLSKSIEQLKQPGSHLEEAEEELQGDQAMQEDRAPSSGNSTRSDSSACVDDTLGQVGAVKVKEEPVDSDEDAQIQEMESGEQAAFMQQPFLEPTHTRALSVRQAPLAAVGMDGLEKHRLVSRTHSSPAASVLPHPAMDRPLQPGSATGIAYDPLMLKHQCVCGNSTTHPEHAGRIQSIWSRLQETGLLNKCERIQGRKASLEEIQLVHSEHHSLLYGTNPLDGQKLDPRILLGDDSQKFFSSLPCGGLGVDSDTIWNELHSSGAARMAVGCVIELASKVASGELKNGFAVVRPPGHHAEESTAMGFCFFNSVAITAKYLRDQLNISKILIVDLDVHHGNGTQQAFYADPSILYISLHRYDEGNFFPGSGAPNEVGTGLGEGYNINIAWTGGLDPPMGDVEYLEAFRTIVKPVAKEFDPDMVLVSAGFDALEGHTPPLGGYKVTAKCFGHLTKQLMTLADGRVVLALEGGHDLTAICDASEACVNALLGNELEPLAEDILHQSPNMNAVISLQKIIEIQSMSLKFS
Histone deacetylase 5, sequence (Q9UQL6 whole entry): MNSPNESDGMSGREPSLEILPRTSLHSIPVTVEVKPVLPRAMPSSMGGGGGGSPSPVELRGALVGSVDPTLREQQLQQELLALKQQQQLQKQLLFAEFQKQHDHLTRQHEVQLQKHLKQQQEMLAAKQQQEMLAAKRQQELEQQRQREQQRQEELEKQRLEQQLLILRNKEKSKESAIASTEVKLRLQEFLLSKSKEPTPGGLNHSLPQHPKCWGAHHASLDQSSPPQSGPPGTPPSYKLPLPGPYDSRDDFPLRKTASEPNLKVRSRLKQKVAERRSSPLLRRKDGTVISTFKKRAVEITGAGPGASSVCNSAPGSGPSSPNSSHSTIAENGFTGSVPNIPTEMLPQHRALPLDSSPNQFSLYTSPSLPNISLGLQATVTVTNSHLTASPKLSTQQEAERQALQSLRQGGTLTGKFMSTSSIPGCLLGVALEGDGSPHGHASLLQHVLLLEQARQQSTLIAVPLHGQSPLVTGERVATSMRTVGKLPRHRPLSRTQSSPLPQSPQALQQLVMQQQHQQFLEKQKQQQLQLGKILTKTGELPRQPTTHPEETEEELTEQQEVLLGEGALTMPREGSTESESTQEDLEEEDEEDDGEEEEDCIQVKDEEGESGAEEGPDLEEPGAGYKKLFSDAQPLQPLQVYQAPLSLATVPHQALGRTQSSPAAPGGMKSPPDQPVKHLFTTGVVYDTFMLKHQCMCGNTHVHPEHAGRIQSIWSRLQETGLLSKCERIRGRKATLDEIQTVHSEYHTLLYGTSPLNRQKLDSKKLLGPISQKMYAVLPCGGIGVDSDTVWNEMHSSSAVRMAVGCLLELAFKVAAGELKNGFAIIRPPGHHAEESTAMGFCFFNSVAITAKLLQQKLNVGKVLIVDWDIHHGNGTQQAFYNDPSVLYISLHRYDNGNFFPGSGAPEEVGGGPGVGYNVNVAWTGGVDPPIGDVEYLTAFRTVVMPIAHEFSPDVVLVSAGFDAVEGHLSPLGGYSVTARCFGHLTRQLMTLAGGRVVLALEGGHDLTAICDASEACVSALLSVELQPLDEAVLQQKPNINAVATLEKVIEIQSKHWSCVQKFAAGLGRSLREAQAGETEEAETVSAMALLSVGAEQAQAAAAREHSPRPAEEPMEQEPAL

SMILES | IC50 [1] | IC50 [2] | IC50 [3] | IC50 [4] | inhibition [9] | inhibition [10] | IC50 [5] | IC50 [6] | IC50 [7] | IC50 [8]
O=C(CCc1ccccc1)NO | 2350 nM | 448 nM | > 33300 nM | 2720 nM | – | – | – | – | – | –
O=C(NO)C1CCCCC1 | 3720 nM | 376 nM | > 33300 nM | > 33300 nM | – | – | – | – | – | –
O=C(NO)C1=CCCC1 | 1090 nM | 30 nM | 21800 nM | 1790 nM | inactive | Dose-dependent effect | > 33300 nM | 18300 nM | 694 nM | 638 nM
O=C(/C=C/c1ccccc1)NO | 759 nM | 22 nM | 19500 nM | 457 nM | – | – | – | – | – | –
O=C(Cc1ccccc1)NO [PHENYLACETOHYDROXAMIC ACID] | 11600 nM | – | > 33300 nM | > 33300 nM | – | – | – | – | – | –
O=C(NO)c1ccccc1 [BENZOHYDROXAMATE] | 1920 nM | 115 nM | > 33300 nM | 7910 nM | inactive | Active | > 33300 nM | > 33300 nM | 7830 nM | 4730 nM

Second part, led by results:

IC50 [1] | IC50 [2] | IC50 [3] | IC50 [4] | inhibition [9] | inhibition [10] | SMILES | IC50 [5] | IC50 [6] | IC50 [7] | IC50 [8]
1030 nM | 7 nM | > 33300 nM | 381 nM | – | – | O=C(NO)c1ccc(C(=O)NCc2ccccc2)cc1 | – | – | – | –
1950 nM | 28 nM | > 33300 nM | – | inactive | Active | CNC(=O)c1ccc(C(=O)NO)cc1 | – | – | – | –
431 nM | 12 nM | 9130 nM | 1050 nM | inactive | Active | O=C(NO)C1=CCCCC1 | – | – | – | –
1330 nM | 8 nM | > 33300 nM | – | – | – | O=C(NO)c1ccc(C(=O)NCCc2ccncc2)cc1 | – | – | – | –
20900 nM | 1360 nM | > 33300 nM | – | – | – | CN1CCN(CCNC(=O)c2ccc(C(=O)NO)cc2)CC1 | – | – | – | –
689 nM | 37 nM | > 33300 nM | – | – | – | O=C(NO)c1ccc(C(=O)Nc2ccccc2)cc1 | – | – | – | –
1150 nM | – | > 33300 nM | – | – | – | O=C(NO)c1ccc(C(=O)NCCc2ccccc2)cc1 | – | – | – | –
